Experimental data taken from patent publication US20060099586A1, “Eef1a2 for use in the prognosis, diagnosis, and treatment of cancer” (priority 2002, published 2006).

Experiments:
[1] = test system: NIH 3T3 cells ectopically expressing EEF1A2; assay: Drug-induced apoptosis in NIH 3T3 cells ectopically expressing EEF1A2; assay type: cell-based, mouse
Source text: Patients with tumor samples that are positive for EEF1A2 are expected to survive for a shorter period of time as compared to patients with tumor sample negative for EEF1A2. Prognostic information relating to EEF1A2-gene amplification and/or EEF1A2 protein expression can be used to enhance clinical decision-making and to select appropriate treatment regimes. NIH 3T3 cells ectopically expressing EEF1A2 are resistant to the apoptosis-induced by cisplatin and staurosporine. Further, mice lacking EEF1A2 show increased lymphoid apoptosis. Accordingly, it is believed that EEF1A2 modulates the sensitivity of cancer cells to selected treatments.

EEF1A1 mRNA = EEF1A1 mRNA levels after antisense oligonucleotide treatment of human Ramos cells; assay type: cell-based
Source text: (§1) Antisense inactivation of EEF1A2 was achieved using two EEF1A2-specific phosphorothioated antisense oligonucleotides. Phosphorothioated DNA oligonucleotides were used as these modified oligonucleotides are non-toxic in humans, nuclease resistant, stable in vivo and in vitro, are readily taken up by cells and activate rapid degradation of the mRNA target (Gewirtz et al. Blood 1998 92:712-736; Agrawal et al. Proc. Natl. Acad. Sci. USA 1990 87:1401-1405). However, as will be understood by those of skill in the art upon reading this disclosure, other modifications well known to those skilled in the art can be used.
(§2) Both antisense oligonucleotides decreased EEF1A2 mRNA levels in human Ramos cells. mRNA levels of EEF1A1 were not decreased by administration of these antisense oligonucleotides. A control sequence, GGTTGCTGTGGGCTTGAGT (SEQ ID NO:4) had no effect on mRNA levels of EEF1A2 or EEF1A1 in the human Ramos cells.

EEF1A2 mRNA = EEF1A2 mRNA levels after antisense oligonucleotide treatment of human Ramos cells; assay type: cell-based
Source text: as §1, §2

Row | Compound | apoptosis induced by the drug [1] | effect on EEF1A1 mRNA levels (EEF1A1 mRNA) | effect on EEF1A2 mRNA levels (EEF1A2 mRNA)
1 | CN[C@@H]1C[C@H]2O[C@@](C)([C@@H]1OC)n1c3ccccc3c3c4c(c5c6ccccc6n2c5c31)C(=O)NC4 [staurosporine] | resistant |  | 
2 | N.N.[Cl][Pt][Cl] [cisplatin] | resistant |  | 
3 | SEQ ID NO:4: control sequence GGTTGCTGTGGGCTTGAGT (listed as DNA, chemistry not given here) |  | no effect | no effect
